Laboratory results taken from patent US20110070232A1, “Combination Therapy with an Antitumor Alkaloid” (Pharma Mar, S.A., priority 2008, published 2011).
Where two headings read alike, the source gives them in different places.

Tests used:
[1] = tested on: HT-29 (colon cancer) cell line; assay: IC50 determination, MIT (tetrazolium) assay, 72 h (Example 18); type: cell-based, human; settings: Homo sapiens; HT-29, 72 hours of drug exposure
Description: (§1) Before plating, cell cultures were trypsinized and cell number estimated using an automated flow cytometer.
(§2) Cells were harvested and seeded in 96 well microtiter plates at the appropriate cell density (5,000-10,000 cells) in 150 μL of media and incubated for 24 hours to allow the cells to attach before drug addition.
(§3) After the incubation period (72 hours), 50 μL of MIT solution was added to each microtiter well and incubated for further 8 hours at 37° C. The culture medium was then removed and 50 μl, of DMSO were added to dissolve the MIT crystals. Optical densities were read at 540 nm on spectrophotometer microplate reader.
(§4) IC50 values were calculated from an average of two to four assays for each of the test agents.

[2] = tested on: LoVo (colon cancer) cell line; assay: as above; type: cell-based, human; settings: Homo sapiens, 72 hours of drug exposure
Description: as §1, §2, §3, §4

[3] = tested on: HCT-116 (colon cancer) cell line; assay: as above; type: cell-based, human; settings: Homo sapiens; HCT-116, 72 hours of drug exposure
Description: HCT-116 cells were grown in McCoy's supplemented with 10% Fetal Bovine Serum (FBS), 1% penicillin/streptomycin and 2 mM L-glutamine.
as §1, §2, §3, §4

MRI-H-254 tumors [4] = type: in vivo, mice
Description: (§5) Female athymic nude mice (Harlan Sprague Dawley, Madison, Wis.) were utilized for all experiments. Animals were housed in ventilated rack caging with food and water ad libitum. The mice were acclimated for at least 5 days prior to tumor implantation with tumor fragments.
Treatments were initiated on DPI 16.
(§6) Tumor size measurements were recorded twice weekly from the treatment initiation until the termination of the study.
(§7) Mean, standard deviation and standard error of the mean were determined for tumor volume for all animal groups at all assessments. Student's t test was performed on tumor volumes at each measurement day, including at the end of the study, to determine whether there were any statistically significant differences between combination treatment groups and single monotherapy treatment groups.

[5] = tested on: MIA PaCA-2 human pancreatic carcinoma cell line; assay: IC50 determination, MTS assay, 72 h (Example 3); type: cell-based; settings: 72 hours of drug exposure
Description: (§8) Gemcitabine (Gemzar®) was the agent evaluated in combination with PM00104. The human pancreatic carcinoma cell lines selected for this assay were the following: BxPC-3, PANC-1, MIA PaCA-2, and SW1990 cell lines. BxPC-3 cell line was grown in RPMI 1640 medium supplemented with 10% FBS, 1.5 g/L sodium bicarbonate, 4.5 g/L glucose, 10 mM HEPES, 1 mM sodium pyruvate, and 2 mM L-glutamine. PANC-1 cell line was grown in DMEM supplemented with 10% FBS, 1.5 g/L sodium bicarbonate, 4.5 g/L glucose, and 4 mM L-glutamine. MIA PaCA-2 cell line was grown in DMEM supplemented with 10% FBS, 1.5 g/L sodium bicarbonate, 4.5 g/L glucose, 2.5% Horse Serum, and 2 mM L-glutamine. SW1990 cell line was grown in RPMI 1640 medium supplemented with 10% FBS and 2 mM L-glutamine.
(§9) a. […] It was used the same methodology as those disclosed in Example 1.
(§10) IC50 values were calculated from an average of three assays for each of the test agents.

[6] = tested on: PANC-1 human pancreatic carcinoma cell line; assay: IC50 determination, MTS assay, 72 h (Example 3); type: cell-based; settings: 72 hours of drug exposure
Description: as §8, §9, §10

MRI-H-254 tumors [7] = type: in vivo, mice; remark: listed apart in the source
Description: as §5, with “fragments. The Vehicle Control group contained 11 mice, groups 2-6 contained 8 mice/group, and the rest of groups contained 9 mice/group.” for “fragments.”
This cell line was grown and implanted to the animals as described in Example 11.
Tumor measurements were determined as disclosed in Example 4. […] Treatments were initiated on DPI 17.
PM00104 was provided in the form of vials of lyophilized PM00104 powder which was reconstituted with water for injection.
as §6, §7
The definition and criteria for the evaluation of potentiation and the degree of additivity for the combination therapy were the same as those disclose in Example 4.

[8] = day 16, PM00104 0.90, cisplatin 3, irinotecan 10, paclitaxel 12.5 mg/kg/day
[9] = day 16, PM00104 0.90, cisplatin 5, irinotecan 18, paclitaxel 25 mg/kg/day
[10] = day 20, PM00104 0.90, cisplatin 3, irinotecan 10, paclitaxel 12.5 mg/kg/day
[11] = day 20, PM00104 0.90, cisplatin 5, irinotecan 18, paclitaxel 25 mg/kg/day
[12] = day 23, PM00104 0.90, cisplatin 3, irinotecan 10, paclitaxel 12.5 mg/kg/day
[13] = day 23, PM00104 0.90, cisplatin 5, irinotecan 18, paclitaxel 25 mg/kg/day
[14] = day 26, PM00104 0.90, cisplatin 3, irinotecan 10, paclitaxel 12.5 mg/kg/day
[15] = day 26, PM00104 0.90, cisplatin 5, irinotecan 18, paclitaxel 25 mg/kg/day
[16] = day 29, PM00104 0.90, cisplatin 3, irinotecan 10, paclitaxel 12.5 mg/kg/day
[17] = day 29, PM00104 0.90, cisplatin 5, irinotecan 18, paclitaxel 25 mg/kg/day
[18] = day 33, PM00104 0.90, cisplatin 3, irinotecan 10, paclitaxel 12.5 mg/kg/day
[19] = day 33, PM00104 0.90, cisplatin 5, irinotecan 18, paclitaxel 25 mg/kg/day
[20] = day 40, PM00104 0.90, cisplatin 3, irinotecan 10, paclitaxel 12.5 mg/kg/day
[21] = day 40, PM00104 0.90, cisplatin 5, irinotecan 18, paclitaxel 25 mg/kg/day
[22] = day 48, PM00104 0.90, cisplatin 3, irinotecan 10, paclitaxel 12.5 mg/kg/day
[23] = day 48, PM00104 0.90, cisplatin 5, irinotecan 18, paclitaxel 25 mg/kg/day
[24] = PM00104 0.90 IV, doxorubicin 6 IP, paclitaxel 12.5 IP mg/kg/day (G2, G5, G6, G7, G8)

## O=c1[nH]cc(F)c(=O)[nH]1 [5-FU, 5-fluorouracil]
[1]
  IC50: 4 µM
[2]
  IC50: 1.8 µM
[3]
  IC50: 6 µM

## N.N.[Cl][Pt][Cl] [Cisplatin, cisplatin]
MRI-H-254 tumors [4]; [8]
  % Inhibition: 1.6%
  % T/C: 98.4%
MRI-H-254 tumors [4]; [9]
  % Inhibition: −0.5%
  % T/C: 100.5%
MRI-H-254 tumors [4]; [10]
  % Inhibition: 6.6%
  % T/C: 93.4%
MRI-H-254 tumors [4]; [11]
  % Inhibition: 2.2%
  % T/C: 97.8%
MRI-H-254 tumors [4]; [12]
  % Inhibition: 17.0%
  % T/C: 83.0%
MRI-H-254 tumors [4]; [13]
  % Inhibition: 24.7%
  % T/C: 75.3%
MRI-H-254 tumors [4]; [14]
  % Inhibition: 18.5%
  % T/C: 81.5%
MRI-H-254 tumors [4]; [15]
  % Inhibition: 40.1%
  % T/C: 59.9%
MRI-H-254 tumors [4]; [16]
  % Inhibition: 27.0%
  % T/C: 73.0%
MRI-H-254 tumors [4]; [17]
  % Inhibition: 45.7%
  % T/C: 54.3%
MRI-H-254 tumors [4]; [18]
  % Inhibition: 31.4%
  % T/C: 68.6%
MRI-H-254 tumors [4]; [19]
  % Inhibition: 60.5%
  % T/C: 39.5%
MRI-H-254 tumors [4]; [20]
  % Inhibition: 44.7%
  % T/C: 55.3%
MRI-H-254 tumors [4]; [21]
  % Inhibition: 76.2%
  % T/C: 23.8%
MRI-H-254 tumors [4]; [22]
  % Inhibition: 50.8%
  % T/C: 49.2%
MRI-H-254 tumors [4]; [23]
  % Inhibition: 82.9%
  % T/C: 17.1%

## Nc1ccn([C@@H]2O[C@H](CO)[C@@H](O)C2(F)F)c(=O)n1 [Gemcitabine, gemcitabine]
[5]
  IC50: 0.079 µg/mL
[6]
  IC50: 110 µg/mL

## CC(=O)O[C@H]1C(=O)[C@@]2(C)[C@H]([C@H](OC(=O)c3ccccc3)[C@]3(O)C[C@H](OC(=O)[C@H](O)[C@@H](NC(=O)c4ccccc4)c4ccccc4)C(C)=C1C3(C)C)[C@]1(OC(C)=O)CO[C@@H]1C[C@@H]2O [paclitaxel]
MRI-H-254 tumors [7]; [24]
  % T/C on day 17: 99.5%
  % T/C on day 20: 86.2%
  % T/C on day 24: 71.9%
  % T/C on day 27: 77.2%
  % T/C on day 32: 67.9%
  % T/C on day 35: 52.3%
  % T/C on day 39: 51.7%
  % T/C on day 47: 69.0%
MRI-H-254 tumors [7]; day 14, PM00104 0.23, doxorubicin 6, paclitaxel 12.5 mg/kg/day
  % Inhibition: 0.5%
MRI-H-254 tumors [7]; day 14, PM00104 0.45, doxorubicin 6, paclitaxel 12.5 mg/kg/day
  % Inhibition: 0.5%
MRI-H-254 tumors [7]; day 14, PM00104 0.90, paclitaxel 12.5 mg/kg/day
  % Inhibition: 0.5%
MRI-H-254 tumors [7]; day 20, PM00104 0.23, doxorubicin 6, paclitaxel 12.5 mg/kg/day
  % Inhibition: 13.8%
MRI-H-254 tumors [7]; day 20, PM00104 0.45, doxorubicin 6, paclitaxel 12.5 mg/kg/day
  % Inhibition: 13.8%
MRI-H-254 tumors [7]; day 20, PM00104 0.90, paclitaxel 12.5 mg/kg/day
  % Inhibition: 13.8%
MRI-H-254 tumors [7]; day 24, PM00104 0.23, doxorubicin 6, paclitaxel 12.5 mg/kg/day
  % Inhibition: 28.1%
MRI-H-254 tumors [7]; day 24, PM00104 0.45, doxorubicin 6, paclitaxel 12.5 mg/kg/day
  % Inhibition: 28.1%
MRI-H-254 tumors [7]; day 24, PM00104 0.90, paclitaxel 12.5 mg/kg/day
  % Inhibition: 28.1%
MRI-H-254 tumors [7]; day 27, PM00104 0.23, doxorubicin 6, paclitaxel 12.5 mg/kg/day
  % Inhibition: 22.8%
MRI-H-254 tumors [7]; day 27, PM00104 0.45, doxorubicin 6, paclitaxel 12.5 mg/kg/day
  % Inhibition: 22.8%
MRI-H-254 tumors [7]; day 27, PM00104 0.90, paclitaxel 12.5 mg/kg/day
  % Inhibition: 22.8%
MRI-H-254 tumors [7]; day 32, PM00104 0.23, doxorubicin 6, paclitaxel 12.5 mg/kg/day
  % Inhibition: 32.1%
MRI-H-254 tumors [7]; day 32, PM00104 0.45, doxorubicin 6, paclitaxel 12.5 mg/kg/day
  % Inhibition: 32.1%
MRI-H-254 tumors [7]; day 32, PM00104 0.90, paclitaxel 12.5 mg/kg/day
  % Inhibition: 32.1%
MRI-H-254 tumors [7]; day 35, PM00104 0.23, doxorubicin 6, paclitaxel 12.5 mg/kg/day
  % Inhibition: 47.7%
MRI-H-254 tumors [7]; day 35, PM00104 0.45, doxorubicin 6, paclitaxel 12.5 mg/kg/day
  % Inhibition: 47.7%
MRI-H-254 tumors [7]; day 35, PM00104 0.90, paclitaxel 12.5 mg/kg/day
  % Inhibition: 47.7%
MRI-H-254 tumors [7]; day 39, PM00104 0.23, doxorubicin 6, paclitaxel 12.5 mg/kg/day
  % Inhibition: 48.3%
MRI-H-254 tumors [7]; day 39, PM00104 0.45, doxorubicin 6, paclitaxel 12.5 mg/kg/day
  % Inhibition: 48.3%
MRI-H-254 tumors [7]; day 39, PM00104 0.90, paclitaxel 12.5 mg/kg/day
  % Inhibition: 48.3%
MRI-H-254 tumors [7]; day 47, PM00104 0.23, doxorubicin 6, paclitaxel 12.5 mg/kg/day
  % Inhibition: 31.0%
MRI-H-254 tumors [7]; day 47, PM00104 0.45, doxorubicin 6, paclitaxel 12.5 mg/kg/day
  % Inhibition: 31.0%
MRI-H-254 tumors [7]; day 47, PM00104 0.90, paclitaxel 12.5 mg/kg/day
  % Inhibition: 31.0%
